Data reported in US20240282401A1, “METHODS FOR ENZYME ENGINEERING” (The University of Manchester, priority 2021, published 2024).

Molecular target: T1, HDNO D6 (Paenarthrobacter nicotinovorans, UniProt P08159, A237T/A42S/E349L/E351D/N413H/V430A)
T1 construct: This full-length gene design was then used to introduce genetic diversity to create a library; His tag (N); made in house; host or cells: E. coli BL21 (DE3)
Assay: Biotransformation turnover frequencies of amine substrates (GC-FID)
Type: biochemical, Arthrobacter nicotinovorans
Settings: for TOF: HDNO D6 0.05 mg mL^−1, 10 mM substrate, 30° C., pH 8 100 mM buffer, conversions after 10 min; for Fold increase vs D2: TOF of HDNO D6 over HDNO D2 (0.2 mg ml^−1)
Description: Chiral normal phase HPLC was performed on an Agilent HPLC system (G1379A degasser, G1312A binary pump, a G1367A well plate autosampler unit, a G1316A temperature-controlled column compartment and a G1315C diode array detector) (Agilent Technologies Inc., Santa Clara, CA) equipped with a CHIRALCEL OD-H (250 mm length, 4.6 mm diameter, 5 μm particle size) analytical column (Daicel Corp., Osaka, Japan). The typical injection volume was 10 μL and chromatograms were monitored at 265 nm. Gas chromatographic (GC) analysis was performed on an Agilent 6850 GC (Agilent Technologies Inc., Santa Clara, CA) with a flame ionization detector and autosampler equipped with a HP-1 column of length 30 m, 0.32 mm inner diameter and 0.25 μm film thickness (Agilent Technologies Inc., Santa Clara, CA).
A typical 500 μL reaction mixture in a 2 mL tube contained 10 mM amine, 0.05 to 1 mg mL^−1 of purified HDNO variant in pH 8 100 mM NaPi buffer. Reactions were incubated at 30° C. with 250 r.p.m shaking for different reaction times, after which they were quenched by the addition of 50 μL of 10 M NaOH and extracted twice with 500 μL tert-butyl methyl ether (HPLC grade, Merck Life Science UK Limited, Gillingham). The organic fractions were combined and dried over anhydrous MgSO4 and analysed by GC-FID (conversions) or HPLC (enantiomeric ratios) on a chiral stationary phase (see Chromatography section for details). Turnover frequencies (TOF, min^−1) were calculated as the moles of product formed/moles of enzyme min^−1 based on conversions obtained by GC-FID analysis (see Chromatography method). The same response factor was considered for both substrate and product.

T1 sequence (P08159 other isoform, or with tags, fused parts or gaps A42S/A237T/E349L/E351D/N413H/V430A/C432S): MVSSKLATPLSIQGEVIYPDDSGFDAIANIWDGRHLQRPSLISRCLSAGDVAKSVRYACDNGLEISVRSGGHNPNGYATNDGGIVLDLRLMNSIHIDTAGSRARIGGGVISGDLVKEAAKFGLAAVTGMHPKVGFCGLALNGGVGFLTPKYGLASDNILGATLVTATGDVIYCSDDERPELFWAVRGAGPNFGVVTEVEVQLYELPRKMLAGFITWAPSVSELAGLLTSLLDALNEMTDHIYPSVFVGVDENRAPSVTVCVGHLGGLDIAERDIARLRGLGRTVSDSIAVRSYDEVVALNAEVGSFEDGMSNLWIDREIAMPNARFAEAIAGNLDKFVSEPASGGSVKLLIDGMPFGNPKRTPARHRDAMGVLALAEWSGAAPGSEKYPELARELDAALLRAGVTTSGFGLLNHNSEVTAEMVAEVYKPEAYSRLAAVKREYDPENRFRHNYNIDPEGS

SMILES	TOF	Fold increase vs D2 [fold]
c1ccc(CCC2CCCN2)cc1 (centres unmarked) [Mutant 1c]	28.8 min⁻¹	5.9
c1ccc(CCC2CCCCN2)cc1 (centres unmarked) [Mutant 1f]	8.4 min⁻¹	
c1ccc([C@H]2CCCN2)cc1 [Mutant 1a, (R)-2-phenylpyrrolidine]	79.8 min⁻¹	5.8
Clc1cccc(C2CCCN2)c1 (centres unmarked) [Mutant 1d]	135.6 min⁻¹	
CN(C)c1ccc(C2CCCN2)cc1 (centres unmarked) [Mutant 1b, 2-(4-dimethylaminophenyl)-pyrrolidine]	181.2 min⁻¹	10.2
C1CC2CNCC2C1 (centres unmarked) [Mutant 1i]	no measurable activity	
CC(N)c1ccccc1 (centres unmarked) [Mutant 1g]	0.66 min⁻¹	
CCCCC[C@@H](C)N [Mutant 1h]	0.42 min⁻¹	
